Test results published in US6638973B2, “Taxane formulations” (FSU Research Foundation, Inc., priority 2000, dated 2003).

test system: HCT116 cells; assay: In vitro cytotoxicity measured by the cell colony formation assay; assay type: cell-based; details: HCT116 colony formation; 72 h drug incubation, colonies counted after 7 days; Example 10, C-10 ester/C-7 hydroxy taxanes; read-out: IN VITRO ID 50 (nm) HCT116
Method in brief: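 Colony-forming survival was scored 7 days after a 72 h, 37 °C compound exposure followed by washout into fresh medium.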

`CC(=O)OC12COC1CC(O)C1(C)C(=O)C(OC(=O)c3ccco3)C3=C(C)C(OC(=O)C(O)C(NC(=O)OC(C)(C)C)C4CCC4)CC(O)(C(OC(=O)c4ccccc4)C21)C3(C)C` (stereo not shown) [Compound 2199] and `CC(=O)O[C@@]12CO[C@@H]1C[C@H](O)[C@@]1(C)C(=O)[C@H](OC(=O)C(C)C)C3=C(C)[C@@H](OC(=O)[C@H](O)[C@@H](NC(=O)OC(C)(C)C)C4CCC4)C[C@@](O)([C@@H](OC(=O)c4ccccc4)C12)C3(C)C` (stereo partly shown) [Compound 2319] cannot be ordered by IC50: under 10 nM for the first, under 10 nM for the second.

`CC(=O)OC12COC1CC(O)C1(C)C(=O)C(OC(=O)c3ccco3)C3=C(C)C(OC(=O)C(O)C(NC(=O)OC(C)(C)C)c4ccc([N+](=O)[O-])cc4)CC(O)(C(OC(=O)c4ccccc4)C21)C3(C)C` (stereo not shown) [Compound 2202] and `CC(=O)OC12COC1CC(O)C1(C)C(=O)C(OC(=O)c3ccco3)C3=C(C)C(OC(=O)C(O)C(NC(=O)OC(C)(C)C)c4ccccc4)CC(O)(C(OC(=O)c4ccccc4)C21)C3(C)C` (stereo not shown) [Compound 2212] cannot be ordered by IC50: under 1 nM for the first, under 10 nM for the second.

`CC(=O)OC12COC1CC(O)C1(C)C(=O)C(OC(=O)C(C)C)C3=C(C)C(OC(=O)C(O)C(C=C(C)C)NC(=O)OC(C)(C)C)CC(O)(C(OC(=O)c4ccccc4)C21)C3(C)C` (stereo not shown) [Compound 2226] and `CC(=O)O[C@@]12CO[C@@H]1C[C@H](O)[C@@]1(C)C(=O)[C@H](OC(=O)C=C(C)C)C3=C(C)[C@@H](OC(=O)[C@H](O)[C@H](C=C(C)C)NC(=O)OC(C)(C)C)C[C@@](O)([C@@H](OC(=O)c4ccccc4)C12)C3(C)C` (stereo partly shown) [Compound 2455] cannot be ordered by IC50: under 1 nM for the first, under 10 nM for the second.

`CC(=O)OC12COC1CC(O)C1(C)C(=O)C(OC(=O)C(C)C)C3=C(C)C(OC(=O)C(O)C(NC(=O)OC(C)(C)C)c4ccccn4)CC(O)(C(OC(=O)c4ccccc4)C21)C3(C)C` (stereo not shown) [Compound 2238] and `CC(=O)O[C@@]12CO[C@@H]1C[C@H](O)[C@@]1(C)C(=O)[C@H](OC(=O)C=C(C)C)C3=C(C)[C@@H](OC(=O)[C@H](O)[C@@H](NC(=O)OC(C)(C)C)c4ccccn4)C[C@@](O)([C@@H](OC(=O)c4ccccc4)C12)C3(C)C` (stereo partly shown) [Compound 2464] cannot be ordered by IC50: under 1 nM for the first, under 1 nM for the second.

`CC(=O)O[C@@]12CO[C@@H]1C[C@H](O)[C@@]1(C)C(=O)[C@H](OC(=O)C(C)C)C3=C(C)[C@@H](OC(=O)[C@H](O)[C@@H](NC(=O)OC(C)(C)C)c4cccnc4)C[C@@](O)([C@@H](OC(=O)c4ccccc4)C12)C3(C)C` (stereo partly shown) [Compound 2242] and `CC(=O)O[C@@]12CO[C@@H]1C[C@H](O)[C@@]1(C)C(=O)[C@H](OC(=O)C(C)C)C3=C(C)[C@@H](OC(=O)[C@H](O)[C@@H](NC(=O)OC(C)(C)C)c4ccncc4)C[C@@](O)([C@@H](OC(=O)c4ccccc4)C12)C3(C)C` (stereo partly shown) [Compound 2255] cannot be ordered by IC50: under 10 nM for the first, under 1 nM for the second.

`CC(=O)O[C@@]12CO[C@@H]1C[C@H](O)[C@@]1(C)C(=O)[C@H](OC(=O)C(C)C)C3=C(C)[C@@H](OC(=O)[C@H](O)[C@@H](NC(=O)OC(C)(C)C)c4ccco4)C[C@@](O)([C@@H](OC(=O)c4ccccc4)C12)C3(C)C` (stereo partly shown) [Compound 2269] and `CC(=O)O[C@@]12CO[C@@H]1C[C@H](O)[C@@]1(C)C(=O)[C@H](OC(=O)C(C)C)C3=C(C)[C@@H](OC(=O)[C@H](O)[C@@H](NC(=O)OC(C)(C)C)c4ccoc4)C[C@@](O)([C@@H](OC(=O)c4ccccc4)C12)C3(C)C` (stereo partly shown) [Compound 2273] cannot be ordered by IC50: under 1 nM for the first, under 1 nM for the second.

`CC(=O)O[C@@]12CO[C@@H]1C[C@H](O)[C@@]1(C)C(=O)[C@H](OC(=O)C(C)C)C3=C(C)[C@@H](OC(=O)[C@H](O)[C@@H](NC(=O)OC(C)(C)C)c4cccs4)C[C@@](O)([C@@H](OC(=O)c4ccccc4)C12)C3(C)C` (stereo partly shown) [Compound 2287] and `CC(=O)O[C@@]12CO[C@@H]1C[C@H](O)[C@@]1(C)C(=O)[C@H](OC(=O)C(C)C)C3=C(C)[C@@H](OC(=O)[C@H](O)[C@@H](NC(=O)OC(C)(C)C)c4ccsc4)C[C@@](O)([C@@H](OC(=O)c4ccccc4)C12)C3(C)C` (stereo partly shown) [Compound 2291] cannot be ordered by IC50: under 1 nM for the first, under 1 nM for the second.

`CC(=O)O[C@@]12CO[C@@H]1C[C@H](O)[C@@]1(C)C(=O)[C@H](OC(=O)C(C)C)C3=C(C)[C@@H](OC(=O)[C@H](O)[C@@H](NC(=O)OC(C)(C)C)C(C)C)C[C@@](O)([C@@H](OC(=O)c4ccccc4)C12)C3(C)C` (stereo partly shown) [Compound 2306] and `C/C=C/C(=O)O[C@H]1C(=O)[C@@]2(C)C([C@H](OC(=O)c3ccccc3)[C@]3(O)C[C@H](OC(=O)[C@H](O)[C@@H](NC(=O)OC(C)(C)C)C(C)C)C(C)=C1C3(C)C)[C@]1(OC(C)=O)CO[C@@H]1C[C@@H]2O` (stereo partly shown) [Compound 2413] cannot be ordered by IC50: under 10 nM for the first, under 10 nM for the second.

`CC(=O)O[C@@]12CO[C@@H]1C[C@H](O)[C@@]1(C)C(=O)[C@H](OC(=O)C(C)C)C3=C(C)[C@@H](OC(=O)[C@H](O)[C@@H](NC(=O)OC(C)(C)C)c4ccc([N+](=O)[O-])cc4)C[C@@](O)([C@@H](OC(=O)c4ccccc4)C12)C3(C)C` (stereo partly shown) [Compound 2320] and `C/C=C/C(=O)O[C@H]1C(=O)[C@@]2(C)C([C@H](OC(=O)c3ccccc3)[C@]3(O)C[C@H](OC(=O)[C@H](O)[C@@H](NC(=O)OC(C)(C)C)c4ccc([N+](=O)[O-])cc4)C(C)=C1C3(C)C)[C@]1(OC(C)=O)CO[C@@H]1C[C@@H]2O` (stereo partly shown) [Compound 2439] cannot be ordered by IC50: under 1 nM for the first, under 10 nM for the second.

`C/C=C/C(=O)O[C@H]1C(=O)[C@@]2(C)C([C@H](OC(=O)c3ccccc3)[C@]3(O)C[C@H](OC(=O)[C@H](O)[C@H](C=C(C)C)NC(=O)OC(C)(C)C)C(C)=C1C3(C)C)[C@]1(OC(C)=O)CO[C@@H]1C[C@@H]2O` (stereo partly shown) [Compound 2332] and `C/C=C/C(=O)O[C@H]1C(=O)[C@@]2(C)C([C@H](OC(=O)c3ccccc3)[C@]3(O)C[C@H](OC(=O)[C@H](O)[C@@H](NC(=O)OC(C)(C)C)C4CCC4)C(C)=C1C3(C)C)[C@]1(OC(C)=O)CO[C@@H]1C[C@@H]2O` (stereo partly shown) [Compound 2424] cannot be ordered by IC50: under 1 nM for the first, under 10 nM for the second.

`C/C=C/C(=O)O[C@H]1C(=O)[C@@]2(C)C([C@H](OC(=O)c3ccccc3)[C@]3(O)C[C@H](OC(=O)[C@H](O)[C@@H](NC(=O)OC(C)(C)C)c4ccccn4)C(C)=C1C3(C)C)[C@]1(OC(C)=O)CO[C@@H]1C[C@@H]2O` (stereo partly shown) [Compound 2348] and `C/C=C/C(=O)O[C@H]1C(=O)[C@@]2(C)C([C@H](OC(=O)c3ccccc3)[C@]3(O)C[C@H](OC(=O)[C@H](O)[C@@H](NC(=O)OC(C)(C)C)c4cccnc4)C(C)=C1C3(C)C)[C@]1(OC(C)=O)CO[C@@H]1C[C@@H]2O` (stereo partly shown) [Compound 2353] cannot be ordered by IC50: under 1 nM for the first, under 10 nM for the second.

`C/C=C/C(=O)O[C@H]1C(=O)[C@@]2(C)C([C@H](OC(=O)c3ccccc3)[C@]3(O)C[C@H](OC(=O)[C@H](O)[C@@H](NC(=O)OC(C)(C)C)c4ccncc4)C(C)=C1C3(C)C)[C@]1(OC(C)=O)CO[C@@H]1C[C@@H]2O` (stereo partly shown) [Compound 2366] and `CC(=O)O[C@@]12CO[C@@H]1C[C@H](O)[C@@]1(C)C(=O)[C@H](OC(=O)C=C(C)C)C3=C(C)[C@@H](OC(=O)[C@H](O)[C@@H](NC(=O)OC(C)(C)C)c4ccncc4)C[C@@](O)([C@@H](OC(=O)c4ccccc4)C12)C3(C)C` (stereo partly shown) [Compound 2472] cannot be ordered by IC50: under 1 nM for the first, under 1 nM for the second.

`C/C=C/C(=O)O[C@H]1C(=O)[C@@]2(C)C([C@H](OC(=O)c3ccccc3)[C@]3(O)C[C@H](OC(=O)[C@H](O)[C@@H](NC(=O)OC(C)(C)C)c4ccco4)C(C)=C1C3(C)C)[C@]1(OC(C)=O)CO[C@@H]1C[C@@H]2O` (stereo partly shown) [Compound 2379] and `CC(=O)O[C@@]12CO[C@@H]1C[C@H](O)[C@@]1(C)C(=O)[C@H](OC(=O)C=C(C)C)C3=C(C)[C@@H](OC(=O)[C@H](O)[C@@H](NC(=O)OC(C)(C)C)c4ccco4)C[C@@](O)([C@@H](OC(=O)c4ccccc4)C12)C3(C)C` (stereo partly shown) [Compound 2488] cannot be ordered by IC50: under 1 nM for the first, under 1 nM for the second.

`C/C=C/C(=O)O[C@H]1C(=O)[C@@]2(C)C([C@H](OC(=O)c3ccccc3)[C@]3(O)C[C@H](OC(=O)[C@H](O)[C@@H](NC(=O)OC(C)(C)C)c4ccoc4)C(C)=C1C3(C)C)[C@]1(OC(C)=O)CO[C@@H]1C[C@@H]2O` (stereo partly shown) [Compound 2380] and `CC(=O)O[C@@]12CO[C@@H]1C[C@H](O)[C@@]1(C)C(=O)[C@H](OC(=O)C=C(C)C)C3=C(C)[C@@H](OC(=O)[C@H](O)[C@@H](NC(=O)OC(C)(C)C)c4ccoc4)C[C@@](O)([C@@H](OC(=O)c4ccccc4)C12)C3(C)C` (stereo partly shown) [Compound 2499] cannot be ordered by IC50: under 1 nM for the first, under 1 nM for the second.

`C/C=C/C(=O)O[C@H]1C(=O)[C@@]2(C)C([C@H](OC(=O)c3ccccc3)[C@]3(O)C[C@H](OC(=O)[C@H](O)[C@@H](NC(=O)OC(C)(C)C)c4cccs4)C(C)=C1C3(C)C)[C@]1(OC(C)=O)CO[C@@H]1C[C@@H]2O` (stereo partly shown) [Compound 2392] and `CC(=O)O[C@@]12CO[C@@H]1C[C@H](O)[C@@]1(C)C(=O)[C@H](OC(=O)C=C(C)C)C3=C(C)[C@@H](OC(=O)[C@H](O)[C@@H](NC(=O)OC(C)(C)C)c4cccs4)C[C@@](O)([C@@H](OC(=O)c4ccccc4)C12)C3(C)C` (stereo partly shown) [Compound 2503] cannot be ordered by IC50: under 1 nM for the first, under 1 nM for the second.

`C/C=C/C(=O)O[C@H]1C(=O)[C@@]2(C)C([C@H](OC(=O)c3ccccc3)[C@]3(O)C[C@H](OC(=O)[C@H](O)[C@@H](NC(=O)OC(C)(C)C)c4ccsc4)C(C)=C1C3(C)C)[C@]1(OC(C)=O)CO[C@@H]1C[C@@H]2O` (stereo partly shown) [Compound 2408] and `CC(=O)O[C@@]12CO[C@@H]1C[C@H](O)[C@@]1(C)C(=O)[C@H](OC(=O)C=C(C)C)C3=C(C)[C@@H](OC(=O)[C@H](O)[C@@H](NC(=O)OC(C)(C)C)c4ccsc4)C[C@@](O)([C@@H](OC(=O)c4ccccc4)C12)C3(C)C` (stereo partly shown) [Compound 2511] cannot be ordered by IC50: under 1 nM for the first, under 1 nM for the second.

`C/C=C/C(=O)O[C@H]1C(=O)[C@@]2(C)C([C@H](OC(=O)c3ccccc3)[C@]3(O)C[C@H](OC(=O)[C@H](O)[C@@H](NC(=O)OC(C)(C)C)c4ccccc4)C(C)=C1C3(C)C)[C@]1(OC(C)=O)CO[C@@H]1C[C@@H]2O` (stereo partly shown) [Compound 2442] and `CC(=O)O[C@@]12CO[C@@H]1C[C@H](O)[C@@]1(C)C(=O)[C@H](OC(=O)C=C(C)C)C3=C(C)[C@@H](OC(=O)[C@H](O)[C@@H](NC(=O)OC(C)(C)C)c4ccccc4)C[C@@](O)([C@@H](OC(=O)c4ccccc4)C12)C3(C)C` (stereo partly shown) [Compound 2520] cannot be ordered by IC50: under 1 nM for the first, under 10 nM for the second.
